Data on 19 compounds can be found in patent US10329258B2, “CGAS in systemic lupus erythematosus (SLE)” (UNIVERSITY OF WASHINGTON, priority 2015, dated 2019).

The test system of one data set is THP1 cells. The data set is described as follows: PolyIC Lipofectamine transfection of THP1 cells, IL-1b by ELISA. Format: cell-based. To be noted: PolyIC transfected THP1 cells, different concentration of HCQ. From the text: PolyIC was transfected by Lipofectamine to THP1 cells with different concentration of HCQ.
(In general: ELISA stands for enzyme-linked immunosorbent assay.)

The target of the next data set is STING (Homo sapiens, UniProt Q86WV6). The data set is described as follows: Binding of 32P-c-di-AMP by STING in the presence of HCQ. As to conditions: 32P-c-di-AMP (2 nM), STING (170 μM), different HCQ concentrations.
Another data set concerns the target T1, dsDNA/cGAS complex (Homo sapiens, UniProt Q8N884).
T1 construct: made in house; host or cells: E. coli Rosetta BL21 pLysS
Put plainly: Electrophoretic mobility shift assay (EMSA) of dsDNA (ISD) binding to cGAS. As to conditions: 0.2 μM ISD, 1.5 μM cGAS, HCQ 0.075~5 mM. The text has this: To determine whether these anti-malarial drugs could inhibit DNA binding to cGAS in vitro, we performed DNA binding studies by the electrophoretic mobility shift assay (EMSA). As previously shown, addition of increasing concentrations of cGAS to a constant concentration of ds DNA (ISD), results in the protein retarding migration of ISD on the gel (‘gel shift’) and less free DNA (FIG. 1, left panel). To test whether HCQ as a model antimalarial could attenuate the gel shift, we used constant concentrations of both ISD and cGAS (FIG. 1, right panel) in the presence of increasing concentrations of HCQ. As shown, increasing the concentration of HCQ reduced the gel shift caused by the formation of dsDNA/cGAS complexes and led to increasing free DNA at the bottom of the gel. […] Inhibition of formation of dsDNA/cGAS higher order complexes by antimalarial drugs are especially interesting and important since cGAS is activated by dsDNA induced oligomerization and dsDNA/cGAS complex formation is required for cGAS activation.
Electrophoretic mobility shift assay (EMSAs) were performed to measure the DNA-binding ability with or without HCQ in vitro. […] The mixtures were resolved on 1% agarose gel using 1×TBE electrophoresis buffer of at constant voltage of 100 V. The gel was analyzed by using a fluorescence-based EMSA kit (Molecular Probes) according to the manufacturer's protocol. […]
In general terms: A gel shift assay detects complexes by their altered migration in electrophoresis.

A further data set deals with T2, cGAS (Homo sapiens, UniProt Q8N884).
T2 construct: made in house; host or cells: E. coli Rosetta BL21 pLysS
The data set is described as follows: cGAS activity assay: cGAMP production quantified by TLC (IC50 Enzyme Assay). Format: biochemical. As to conditions: for inhibitory activity on cGAMP production, in words: TLC, FIG. 2C. The procedure: HCQ belongs to a family of antimalarial drugs that share the structure of aminoquinolines. To rapidly screen these antimalarial drugs for their ability to interfere with cGAS activation by ds-DNA, we performed dose titration experiments with drug and quantified cGAMP production using thin layer chromatography (TLC) (FIG. 2A). Reactions were performed in triplicate and normalized to no-inhibitor controls and fit by non-linear regression using Prism […]™ to determine the IC50 of each compound. Each compound yielded dose-response curves similar to HCQ but with different inhibitory activities (FIG. 2B). […] Strikingly, the computational predicted binding affinities of these anti-malaria drugs inversely correlated with the IC50 of anti-malarial drugs, validating the prediction of our computational analysis (FIG. 2D).
Initial characterization of enzyme activity was monitored in the presence of 250 μM ATP, 250 μM GTP, 0-500 μg/mL herring testes DNA, 1.4 μM cGAS, 3.3 nM ^32P-γ-ATP in a buffer composed of 40 mM Tris, 250 mM NaCl, 10 mM MgCl2, pH 7.5. Reactions were incubated for 1 hr at room temperature and subsequently spotted on PEI-cellulose TLC plates and developed using a solvent composition 1:1.5 [v/v] saturated NH4SO4 and 1.5 M KH2PO4 [pH 3.6]. For inhibition assays, compounds were characterized in the presence of the above reaction contents at fixed 100 μg/mL htDNA. TLC plates were exposed to a phosphor-storage screen and imaged using a TYPHOON™ imaging system. (See FIGS. 7-16).
cGAS activity was monitored in the presence of 250 μM ATP, 250 μM GTP, 0-500 μg/ml herring testes DNA. 1.4 μM cGAS. and 3.3 nM [^32P]-ATP in Tris buffer (pH 7.5). After incubation for 1 h at room temperature, samples were spotted on PEI-cellulose Thin Layer Chromatograph (TLC) plates, and developed using a solvent composed of 1:1.5 [v/v] saturated NH4SO4 and 1.5 M KH2PO4 [pH 3.6]. For inhibition assays, compounds were characterized in the presence of the above reaction contents at fixed 100 μg/ml HT DNA. TLC plates were exposed to a phosphor-storage screen and imaged using a TYPHOOON™ imaging system. (FIG. 7).
Thin Layer Chromatograph (TLC) assay was used for the quantification of cGAS inhibition by compounds X5/X6/X7. Reactions were normalized to no-inhibitor controls and fit by non-linear regression using Prizm […]™ to determine the IC50 of each compound. (FIG. 7).

For data set [1], the system named is IFNb production by THP1 cells. The data set is described as follows: IFNb expression by QPCR in THP1 cells transfected with herring testis DNA. The class given is cell-based. As to conditions: for IC50: Homo sapiens, read-out: IC50 of inhibition of IFNb production by THP1 cells; for inhibition of IFNb production, effectiveness in words: THP1 cells transfected with DNA, compared with Quinacrine, AMCA, HCQ, Chloroquine. The text has this:
Systemic Lupus Erythematosus (SLE) is strongly associated with increased expression of type I interferon (IFN-I) (Elkon, 2012). Both genetic as well as experimental studies indicate that IFN-I plays a central role in this disease (Lovgren, 2006) (Niewold, 2007). To determine the physiological relevance of our computational analysis and in vitro observance, we examined whether antimalarial drugs could inhibit IFNb production within the cell. […] Using this approach, we transfected THP1 cells with DNA in the presence or absence of antimalarial compounds and quantified IFNb expression by QPCR.
THP1 cells (0.2×10^6) were transfected with 0.5 ug herring testis DNA using Lipofectamine 2000 (Invitrogen) according to the manufacture's instruction. Before transfection, THP1 cells were incubated with different concentration of Hydroxychloroquine or other antimalarial drugs (100, 50, 25, 12.5 μM) for 5 minutes. Cells were stimulated for 16 hours and then harvested for RNA extraction.
Total RNA was isolated from THP1 cells using the RNeasy mini kit (Qiagen, Valencia, Calif.). cDNA was synthesized using 100 ng RNA with the high-capacity cDNA RT-KIT™ using random primers (Applied Biosystems, Foster City, Calif.). Reactions in duplicate were run on an ABI STEPONE PLUS™ using the primers from Qiagen (primer catalog number): a two-stage cycle of 95° C. for 15 s and 60° C. for 1 min was repeated for 40 cycles followed by a dissociation stage. Threshold cycle values were set as a constant threshold at 0.2, and fold changes in gene expression were then calculated using the 2^−ΔΔ^CT method.

The next data set deals with 3 cell lines. Put plainly: Toxicity, average of 3 cell lines @ 50% cell death. The class given is cell-based.
Setting [2] is: THP-1, THP1 cells transfected with herring testis DNA, 16 hours, QPCR.
The mark [3] stands for this setting: cGAS, fixed 100 μg/mL herring testes DNA, TLC of cGAMP, read-out: IC50 Enzyme Assay.

Entries after “also recorded” stand apart in the source; their conditions may differ. Where two headings read alike, the source gives them in different places.

T2 sequence (Q8N884 whole entry, species assumed): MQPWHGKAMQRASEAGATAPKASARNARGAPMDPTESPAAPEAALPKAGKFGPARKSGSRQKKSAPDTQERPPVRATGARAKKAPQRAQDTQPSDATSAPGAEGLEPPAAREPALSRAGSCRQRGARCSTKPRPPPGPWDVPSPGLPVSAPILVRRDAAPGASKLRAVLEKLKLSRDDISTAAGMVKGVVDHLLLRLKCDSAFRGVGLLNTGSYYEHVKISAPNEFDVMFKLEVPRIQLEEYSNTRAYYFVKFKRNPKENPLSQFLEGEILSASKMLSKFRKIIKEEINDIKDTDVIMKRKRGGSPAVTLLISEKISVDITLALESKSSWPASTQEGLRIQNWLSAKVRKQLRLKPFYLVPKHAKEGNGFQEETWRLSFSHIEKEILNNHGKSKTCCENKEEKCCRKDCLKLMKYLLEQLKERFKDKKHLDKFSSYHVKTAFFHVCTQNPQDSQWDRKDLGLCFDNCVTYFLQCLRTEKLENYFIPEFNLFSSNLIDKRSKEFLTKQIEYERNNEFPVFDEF
T1 sequence (Q8N884 whole entry, species assumed, one chain of several): as the sequence (Q8N884 whole entry, species assumed) above
Chain of STING (Q86WV6 whole entry H232R, species assumed): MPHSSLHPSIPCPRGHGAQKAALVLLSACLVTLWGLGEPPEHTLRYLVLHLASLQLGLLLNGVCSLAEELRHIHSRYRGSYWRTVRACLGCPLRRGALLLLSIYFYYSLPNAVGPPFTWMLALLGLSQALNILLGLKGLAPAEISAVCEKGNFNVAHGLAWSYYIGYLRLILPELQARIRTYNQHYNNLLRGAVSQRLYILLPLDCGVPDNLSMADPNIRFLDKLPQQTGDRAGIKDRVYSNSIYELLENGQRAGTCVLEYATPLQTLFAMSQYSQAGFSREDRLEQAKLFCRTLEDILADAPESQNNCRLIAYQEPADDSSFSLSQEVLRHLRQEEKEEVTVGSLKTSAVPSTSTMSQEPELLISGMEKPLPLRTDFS

For the compound `CCN(CCO)CCCC(C)Nc1ccnc2cc(Cl)ccc12` (stereo not drawn) [HCQ, hydroxychloroquine], the “effect on Lipofectamine transfection efficiency (IL-1b production)” value in the data set with THP1 cells is “did not interfere with the Lipofectamine transfection efficiency”. Further, the “effect on c-di-AMP binding to STING” value on STING was “not c-di-AMP to STING”. Moreover, the “effect on dsDNA/cGAS binding (gel shift)” value on dsDNA/cGAS complex is “blocked dsDNA/cGAS binding; also recorded: inhibits the DNA binding to cGAS”. For the same compound, the “inhibitory activity on cGAMP production, in words” value (“inhibitory activity” for short) on cGAS was “intermediate inhibitory activities”. The half-maximal inhibitory concentration (IC50) in data set [1] (setting [2]) lay within 3 to 25 µM.

As for `CCN(CC)CCCC(C)Nc1c2ccc(Cl)cc2nc2ccc(OC)cc12` (stereo not drawn) [Quinacrine, quinacrine], the “inhibitory activity” value at cGAS is on record as “relatively potent inhibitors”. Besides, the IC50 in data set [1] (setting [2]) is 3 to 25 µM.

For the compound `CCN(CCO)CCCC(C)Nc1ccnc2cc(Cl)ccc12` (stereo not drawn) [compound 1, hydroxychloroquine], on cGAS (setting [3]), the IC50 turned out to be 350 µM.

Consider `CCN(CC)CCCC(C)Nc1ccnc2cc(Cl)ccc12` (stereo not drawn) [compound 2, Chloroquine], for which the “inhibitory activity” value against cGAS was “intermediate inhibitory activities”. Besides, the IC50 is 850 µM at cGAS (setting [3]) and 3 to 25 µM in data set [1] (THP-1, 16 h).

Regarding `COc1cc(NC(C)CCCN)c2ncccc2c1` (stereo not drawn) [compound 3, Primaquine], the “inhibitory activity” value against cGAS was “very low inhibitory activity”. In addition, the IC50 at cGAS (setting [3]) worked out at 850 µM. The “inhibition of IFNb production, effectiveness in words” value in data set [1] is “less effective by about one log order”.

Regarding `CCN(CC)CCCC(C)Nc1c2ccc(Cl)cc2nc2ccc(OC)cc12` (stereo not drawn) [compound 4, quinacrine], on cGAS (setting [3]), the IC50 was found to be 13 µM. The compound further came in with a Toxicity with 3 cell lines of 33.0 µM.

Turning to `C=C[C@H]1CN2CC[C@H]1C[C@H]2[C@H](O)c1ccnc2ccc(OC)cc12` [compound 5, Quinine], the “inhibitory activity” value against cGAS is on record as “very low inhibitory activity”. Further, on cGAS (setting [3]), the concentration for half-maximal inhibition (IC50) was found to be 2000 µM. For the same compound, in data set [1], the “inhibition of IFNb production, effectiveness in words” value was “less effective by about one log order”.

With `COc1ccc2nc3cc(Cl)ccc3c(N)c2c1` [compound 6, 9-amino-6-chloro-2-methoxyacridine], at cGAS, the IC50 stood at 32 µM and the “inhibitory activity” value is on record as “relatively potent inhibitors”. Further, the IC50 in data set [1] (THP-1, 16 h) is 3 to 25 µM.

On to `CCOc1ccc2nc3cc(N)ccc3c(N)c2c1` [compound 7], for which, at cGAS (setting [3]), the IC50 worked out at 10 µM.

As for `Nc1c2ccccc2nc2ccccc12` [compound 8], the IC50 on cGAS (setting [3]) was determined as 5 µM.

`O=C(O)[C@H](Cc1c[nH]c2ccccc12)Nc1c2ccccc2nc2ccccc12` [compound 9]: the IC50 on cGAS (setting [3]) is above 650 µM.

Regarding `CCOC(=O)c1ccc(Nc2c3ccccc3nc3ccccc23)cc1` [compound 10], the IC50 on cGAS (setting [3]) is above 650 µM.

As to `O=[N+]([O-])c1cccc(Nc2c3ccccc3nc3ccccc23)c1` [compound 11], the IC50 at cGAS (setting [3]) is above 650 µM.

As to `COc1cc(NS(C)(=O)=O)ccc1Nc1c2ccccc2nc2ccccc12` [compound 12], the half-inhibitory concentration (IC50) at cGAS (setting [3]) was above 650 µM.

With `COc1ccc2nc3cc(N)ccc3c(N(C)CCCN(C)Cc3ccccc3)c2c1` [compound 13, 9-(N-benzyl-N-methyl-N′-methyl-1′,3′-propanediamine)-3-amino-7-methoxyacridine], at cGAS (setting [3]), the IC50 was 18 µM. In the data set on 3 cell lines, this compound returned a Toxicity of 33.1 µM.

With `COc1ccc2nc3cc(N)ccc3c(N(C)CCCN(C)Cc3ccncc3)c2c1` [compound 14], the IC50 at cGAS (setting [3]) worked out at 23 µM. The compound also registered a Toxicity in the data set with 3 cell lines of 27.4 µM.

Take `COc1ccc2nc3cc(N)ccc3c(N(C)CCCN(C)Cc3ccco3)c2c1` [compound 15, 9-(N-furfuryl-N-methyl-N′-methyl-1′,3′-propanediamine)-3-amino-7-methoxyacridine]: at cGAS (setting [3]), the IC50 was 35 µM.

Consider `CN(C)c1ccc2cc3ccc(N(C)C)cc3nc2c1` [compound 20], for which the IC50 at cGAS (setting [3]) was found to be 8 µM.

For the compound `NCCCCNc1c2ccccc2nc2ccccc12` [compound 21], the IC50 on cGAS (setting [3]) worked out at 1 µM. This compound also registered a Toxicity with 3 cell lines of 16.0 µM.

The IC50 is the concentration that gives 50% inhibition.
